Assay results published in patent US20250281424A1 (New York Blood Center, Inc, priority 2020, published 2025).

Target: T1, human PF4 (Homo sapiens, UniProt P02776)
T1 construct: PF4 is a 70 amino acid, lysine-rich 7.8 kDa platelet-specific protein; made in house; host or cells: Escherichia coli BL21DE3 pLysS (pT7-7) and/or Drosophila S2 cells
T1 sequence (P02776 32-101): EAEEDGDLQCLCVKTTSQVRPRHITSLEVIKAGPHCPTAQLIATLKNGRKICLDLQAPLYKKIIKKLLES
Test: Inhibition of PF4 tetramer formation (BS3 cross-linking, SDS-PAGE)
Type: biochemical
Details: for inhibition at 5 µM: 5 μM inhibitor; for inhibition at 5 µM / inhibition at 10 µM / inhibition at 1 µM / inhibition at 3 µM: read-out: % inhibition of PF4 tetramer formation at single concentration of inhibitor; for inhibition at 10 µM: 10 μM inhibitor (column A); for IC50: read-out: IC50 of PF4 tetramer formation inhibition; for inhibition at 1 µM: 1 μM inhibitor; for inhibition at 3 µM: 3 μM inhibitor (column A)
Method in brief: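 Monomer, dimer, trimer and tetramer fractions were quantified by densitometry after reducing 12% SDS-PAGE of BS3-cross-linked (0.2 mM, 30 min, room temperature) PF4. Before cross-linking, 10 μg/ml E. coli-expressed human WT PF4 in PBS was exposed to compound for 15 min at 37° C or 60 min at room temperature; controls lacked compound.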

Row | Compound | inhibition at 5 µM [%] | inhibition at 10 µM [%] | IC50 [nM] | inhibition at 1 µM [%] | inhibition at 3 µM [%]
1 | CC(C)(C)OC(=O)N1CCC[C@H]1C(=O)C1C(=O)c2ccc(C(=O)c3ccc4c(c3)C(=O)C(C(=O)[C@@H]3CCCN3C(=O)OC(C)(C)C)C4=O)cc2C1=O (stereo partly drawn) [Example 111, tert-butyl (2S)-2-(5-{2-[(2S)-1-[(tert-butoxy)carbonyl]pyrrolidine-2-carbonyl]-1,3-dioxo-2,3-dihydro-1H-indene-5-carbonyl}-1,3-dioxo-2,3-dihydro-1H-indene-2-carbonyl)pyrrolidine-1-carboxylate] | 100 | 100 | 500 | – | –
2 | CC(=O)NCCCC(=O)C1C(=O)c2ccc(C(=O)c3ccc4c(c3)C(=O)C(C(=O)CCCNC(C)=O)C4=O)cc2C1=O (centres unmarked) [Example 269, N-(4-{5-[2-(4-acetamidobutanoyl)-1,3-dioxo-2,3-dihydro-1H-indene-5-carbonyl]-1,3-dioxo-2,3-dihydro-1H-inden-2-yl}-4-oxobutyl)acetamide] | – | – | – | 14 | 50
3 | CC(C)(C)CC(=O)NCC(=O)C1C(=O)c2ccc(C(=O)c3ccc4c(c3)C(=O)C(C(=O)CNC(=O)CC(C)(C)C)C4=O)cc2C1=O (centres unmarked) [Example 185, N-[2-(5-{2-[2-(3,3-dimethylbutanamido)acetyl]-1,3-dioxo-2,3-dihydro-1H-indene-5-carbonyl}-1,3-dioxo-2,3-dihydro-1H-inden-2-yl)-2-oxoethyl]-3,3-dimethylbutanamide] | 89 | 94 | 4400 | – | –
4 | Cc1ccccc1C(=O)CCC(=O)C1C(=O)c2ccc(Oc3ccc4c(c3)C(=O)C(C(=O)CCC(=O)c3ccccc3C)C4=O)cc2C1=O (centres unmarked) [Example 259, 2-[4-(2-methylphenyl)-4-oxobutanoyl]-5-({2-[4-(2-methylphenyl)-4-oxobutanoyl]-1,3-dioxo-2,3-dihydro-1H-inden-5-yl}oxy)-2,3-dihydro-1H-indene-1,3-dione] | – | – | – | 18 | 55
5 | CC(C)(C)OC(=O)N1CCOC(C(=O)C2C(=O)c3ccc(S(=O)(=O)c4ccc5c(c4)C(=O)C(C(=O)C4CN(C(=O)OC(C)(C)C)CCO4)C5=O)cc3C2=O)C1 (centres unmarked) [Example 233] | – | – | – | 1 | 3
6 | CC(C)OCC(=O)C1C(=O)c2ccc(S(=O)(=O)c3ccc4c(c3)C(=O)C(C(=O)COC(C)C)C4=O)cc2C1=O (centres unmarked) [Example 379, 5-({1,3-dioxo-2-[2-(propan-2-yloxy)acetyl]-2,3-dihydro-1H-inden-5-yl}sulfonyl)-2-[2-(propan-2-yloxy)acetyl]-2,3-dihydro-1H-indene-1,3-dione] | – | – | 660 | 43 | 68
7 | CC(=O)NCCCC(=O)C1C(=O)c2ccc(Oc3ccc4c(c3)C(=O)C(C(=O)CCCNC(C)=O)C4=O)cc2C1=O (centres unmarked) [Example 265, N-[4-(5-{[2-(4-acetamidobutanoyl)-1,3-dioxo-2,3-dihydro-1H-inden-5-yl]oxy}-1,3-dioxo-2,3-dihydro-1H-inden-2-yl)-4-oxobutyl]acetamide] | – | – | – | 18 | 34
8 | N[C@H](C(=O)C1C(=O)c2ccc(C(=O)c3ccc4c(c3)C(=O)C(C(=O)[C@@H](N)C3CC3)C4=O)cc2C1=O)C1CC1 (stereo partly drawn) [Example 118, 2-[(2S)-2-amino-2-cyclopropylacetyl]-5-{2-[(2S)-2-amino-2-cyclopropylacetyl]-1,3-dioxo-2,3-dihydro-1H-indene-5-carbonyl}-2,3-dihydro-1H-indene-1,3-dione] | 75 | 94 | 3400 | – | –
9 | CC(=O)C1C(=O)c2ccc(Oc3ccc4c(n3)C(=O)C(C(C)=O)C4=O)cc2C1=O (centres unmarked) [Example 330, 6-acetyl-2-[(2-acetyl-1,3-dioxo-2,3-dihydro-1H-inden-5-yl)oxy]-5H,6H,7H-cyclopenta[b]pyridine-5,7-dione] | – | – | – | 6 | 22
10 | CC(C)(C)OC(=O)N1CCCC[C@H]1C(=O)C1C(=O)c2ccc(C(=O)c3ccc4c(c3)C(=O)C(C(=O)[C@@H]3CCCCN3C(=O)OC(C)(C)C)C4=O)cc2C1=O (stereo partly drawn) [Example 127, tert-butyl (2S)-2-(5-{2-[(2S)-1-[(tert-butoxy)carbonyl]piperidine-2-carbonyl]-1,3-dioxo-2,3-dihydro-1H-indene-5-carbonyl}-1,3-dioxo-2,3-dihydro-1H-indene-2-carbonyl)piperidine-1-carboxylate] | – | – | 1000 | – | –
11 | CC(C(=O)C1C(=O)c2ccc(C(=O)c3ccc4c(c3)C(=O)C(C(=O)C(C)c3ccc(F)cc3)C4=O)cc2C1=O)c1ccc(F)cc1 (centres unmarked) [Example 242, 2-[2-(4-fluorophenyl)propanoyl]-5-{2-[2-(4-fluorophenyl)propanoyl]-1,3-dioxo-2,3-dihydro-1H-indene-5-carbonyl}-2,3-dihydro-1H-indene-1,3-dione] | – | – | – | 13 | 31
12 | COc1ccc(NC(=O)C2C(=O)c3ccc(C(=O)c4ccc5c(c4)C(=O)C(C(=O)Nc4ccc(OC)cc4OC)C5=O)cc3C2=O)c(OC)c1 (centres unmarked) [Example 96, N-(2,4-dimethoxyphenyl)-5-{2-[(2,4-dimethoxyphenyl)carbamoyl]-1,3-dioxo-2,3-dihydro-1H-indene-5-carbonyl}-1,3-dioxo-2,3-dihydro-1H-indene-2-carboxamide] | 36 | 70 | – | – | –
13 | CC(C)(C)OCC(=O)C1C(=O)c2ccc(S(=O)(=O)c3ccc4c(c3)C(=O)C(C(=O)COC(C)(C)C)C4=O)cc2C1=O (centres unmarked) [Example 231, 2-[2-(tert-butoxy)acetyl]-5-({2-[2-(tert-butoxy)acetyl]-1,3-dioxo-2,3-dihydro-1H-inden-5-yl}sulfonyl)-2,3-dihydro-1H-indene-1,3-dione] | – | – | 1710 | 69 | 65
14 | CC(C)(C)OC(=O)N1CCC[C@H]1C(=O)C1C(=O)c2ccc(Oc3ccc4c(c3)C(=O)C(C(=O)[C@@H]3CCCN3C(=O)OC(C)(C)C)C4=O)cc2C1=O (stereo partly drawn) [Example 193, tert-butyl (2S)-2-[5-({2-[(2S)-1-[(tert-butoxy)carbonyl]pyrrolidine-2-carbonyl]-1,3-dioxo-2,3-dihydro-1H-inden-5-yl}oxy)-1,3-dioxo-2,3-dihydro-1H-indene-2-carbonyl]pyrrolidine-1-carboxylate] | 37 | 40 | – | – | –
15 | O=C1c2ccc(Oc3ccc4c(c3)C(=O)C(C(=O)[C@H]3CCCN3)C4=O)cc2C(=O)C1C(=O)[C@@H]1CCNC1 (stereo partly drawn) [Example 356, 5-({1,3-dioxo-2-[(3R)-pyrrolidine-3-carbonyl]-2,3-dihydro-1H-inden-5-yl}oxy)-2-[(2R)-pyrrolidine-2-carbonyl]-2,3-dihydro-1H-indene-1,3-dione] | – | – | – | 18 | 55
16 | CC(C)[C@@H](N)C(=O)C1C(=O)c2ccc(Oc3ccc4c(c3)C(=O)C(C(=O)[C@H](N)C(C)C)C4=O)cc2C1=O (stereo partly drawn) [Example 351, 2-[(2R)-2-amino-3-methylbutanoyl]-5-({2-[(2R)-2-amino-3-methylbutanoyl]-1,3-dioxo-2,3-dihydro-1H-inden-5-yl}oxy)-2,3-dihydro-1H-indene-1,3-dione] | – | – | – | 12 | 21
17 | O=C1c2ccc(Oc3ccc4c(c3)C(=O)C(C(=O)C3CCCS3(=O)=O)C4=O)cc2C(=O)C1C(=O)C1CCCS1(=O)=O (centres unmarked) [Example 370, 2-(5-{[2-(1,1-dioxo-1λ^6-thiolane-2-carbonyl)-1,3-dioxo-2,3-dihydro-1H-inden-5-yl]oxy}-1,3-dioxo-2,3-dihydro-1H-indene-2-carbonyl)-1λ^6-thiolane-1,1-dione] | – | – | – | 3 | 6
